# Measurements from publication PMC4773817 (2016).
# Key:
# [1] = test system: FPS2.MT (labelled PS2.M) (DNA, G4) GTGGGTAGGGCGGGTTGG; assay: FRET melting; conditions: not printed (procedure from ref. 50); 3 μM compound, 0.2 μM DNA
# [2] = test system: F10T (DNA, hairpin, hexaethylene glycol (HEG) linker between nucleotides 8 and 9) TATAGCTATATAGCTATAT; assay: FRET melting; conditions: 3 μM compound, 0.2 μM DNA; no significant variation
# [3] = test system: HP5 (DNA, hairpin) ACGTGGCTGAGGCCAGTGGGTAGGGCGGGTTGGCCTCAGCCACGT; assay: luminescence enhancement; conditions: HP5 formed in assay without Nt.BbvCI
# [4] = test system: HP1 (DNA, hairpin) GGTACGTGGCTGAGGCCAGTGGGTAGGGCGGGTTGGCCTCAGCCACGTACC; assay: luminescence enhancement; conditions: 1.1-fold emission enhancement
# [5] = test system: PS2.M 5'-side loop n=17 (DNA, G4) GTGGGTTTTTTTTATTTTTTTTGGGCGGGTTGG; assay: luminescence enhancement; conditions: 9.2-fold emission enhancement
# [6] = test system: PS2.M (DNA, G4) GTGGGTAGGGCGGGTTGG; assay: fluorescent intercalator displacement (G4-FID); conditions: Tris-HCl buffer; thiazole orange displaced
# [7] = test system: PS2.M 5'-side loop n=1 (DNA, G4) GTGGGAGGGCGGGTTGG; assay: luminescence enhancement; conditions: 4.2-fold emission enhancement
# [8] = test system: CCR5-DEL (DNA, single strand) CTCATTTTCCATACATTAAAGATAGTCAT; assay: luminescence enhancement; conditions: 1 μM compound, 5 μM DNA, 10 mM Tris, pH 7.4
# [9] = test system: ds26 (DNA, duplex) CAATCGGATCGAATTCGATCCGATTG; assay: FRET melting competition; conditions: ds26 (2 μM, 10-fold excess) as competitor of 0.2 μM labelled PS2.M; 3 μM compound; no significant change
smiles,measurement,setting,value
[Ir+3].[Ir+3].[c-]1ccccc1-c1ccc2ccccc2n1.[c-]1ccccc1-c1ccc2ccccc2n1.[c-]1ccccc1-c1ccc2ccccc2n1.[c-]1ccccc1-c1ccc2ccccc2n1.c1ccc(N(CCCCCN(c2ccccn2)c2ccccn2)c2ccccn2)nc1,ΔTm,[1],~ 12 °C
same,binding,[2],no
same,binding,[3],weak
same,binding,[4],weak
same,binding,[5],yes
same,G4DC50,[6],7.0 µM
same,binding,[7],yes
same,binding,[8],weak
same,binding,[9],weak
